Source: patent US20260263485A1, “AMINOSTEROL COMPOUNDS, AMINOSTEROL-CYCLODEXTRIN FORMULATIONS, AND METHODS OF USING THE SAME” (Enterin, Inc., priority 2022, published 2026)
“And” between values parts separate entries of the source, which are not always exact repeats. Equal values may be shown once. Read-outs that look alike come from different tables or passages of the source.

Tests used:
[1] = Identification of metabolites of ENT-03S in rat plasma and urine samples (UPLC-MS/MS); type: in vivo
Method: An equal number of rat urine (50 μL) were taken from different animals at various time points following administration of ENT-03S. For plasma samples, the Hamilton pooling method was used.
Study design: An equal number of rat urine (50 μL) samples were taken from different animals at various time points from study No.: PH-DMPK-ETR-21-001 following administration of ENT-03S. For plasma samples, the Hamilton pooling method was used.
The samples were then analysed using UPLC-MS/MS.
Compound dependent parameters were optimized by ENT-03S.

[2] = Plasma pharmacokinetics of ENT-03S cyclodextrin formulation after subcutaneous injection; type: in vivo, rat; details: 20% beta-cyclodextrin formulation, male SD rats
Method: In this example, ENT-03S was formulated with unmodified beta-cyclodextrin at a concentration of 25 mg/ml ENT-03, and 20% beta-cyclodextrin, pH 7.5, buffered with phosphate.
Male Sprague-Dawley rats were administered the ENT-03-cyclodextrin formulation subcutaneous at a dose of 10 mg/kg. Blood samples were drawn from the tail vein at various times, the concentrations of ENT-03 determined, and PK parameters determined.

[3] = SC Dose 10 mg/kg, plasma, individual rats, 10 mg/kg

Compound: C[C@H](CCC[C@H](C)C(=O)O)[C@H]1CCC2C3C(CC[C@@]21C)[C@@]1(C)CC[C@H](NCCCNCCCCNCCCN)C[C@@H]1C[C@H]3O (stereo partly drawn) [ENT-03S, (2S,6R)-6-((3S,5R,7R,10S,13R,17R)-3-((3-((4-((3-aminopropyl)amino)butyl)amino)propyl)amino)-7-hydroxy-10,13-dimethylhexadecahydro-1 H-cyclopenta[a]phenanthren-17-yl)-2-methylheptanoic acid]
- Metabolite peak area percentages Rat Plasma Male ([1]; pooled male SD rat plasma 0.25-24 h after 10 mg/kg ENT-03S SC, relative XIC peak area): 91.29%
- Metabolite peak area Rat Plasma Male ([1]; pooled male SD rat plasma after 10 mg/kg ENT-03S SC, XIC peak area): 6.03E+08
- Metabolite peak area percentages Rat Urine Male ([1]; pooled male SD rat urine 0-24 h after 10 mg/kg ENT-03S SC, relative XIC peak area, “—”: not observed): 71.94%
- Metabolite peak area Rat Urine Male ([1]; pooled male SD rat urine after 10 mg/kg ENT-03S SC, XIC peak area, “—”: not observed): 1.62E+06
- Concentration (ng/ml) Rat 1-3 ([2]; 10 mg/kg SC, 0.25 h, individual rats, 10 mg/kg): 22000 ng/mL and 20800 ng/mL
- Concentration (ng/ml) Rat 1-3 ([2]; 10 mg/kg SC, 0.5 h, individual rats, 10 mg/kg): 27100 ng/mL and 30200 ng/mL
- Concentration (ng/ml) Rat 1-3 ([2]; 10 mg/kg SC, 1 h, individual rats, 10 mg/kg): 31700 ng/mL and 33000 ng/mL
- Concentration (ng/ml) Rat 1-3 ([2]; 10 mg/kg SC, 2 h, individual rats, 10 mg/kg): 32700 ng/mL and 33300 ng/mL
- Concentration (ng/ml) Rat 1-3 ([2]; 10 mg/kg SC, 4 h, individual rats, 10 mg/kg): 29600 ng/mL and 25400 ng/mL
- Concentration (ng/ml) Rat 1-3 ([2]; 10 mg/kg SC, 8 h, individual rats, 10 mg/kg): 25000 ng/mL and 23000 ng/mL
- Concentration (ng/ml) Rat 1-3 ([2]; 10 mg/kg SC, 24 h, individual rats, 10 mg/kg): 14100 ng/mL and 12600 ng/mL
- Concentration (ng/ml) Rat 1-3 ([2]; 10 mg/kg SC, 48 h, individual rats, 10 mg/kg): 7700 ng/mL and 5620 ng/mL
- Concentration (ng/ml) Rat 1-3 ([2]; 10 mg/kg SC, 72 h, individual rats, 10 mg/kg): 1850 ng/mL and 4200 ng/mL and 2440 ng/mL
- AUC_% Extrap_obs [2, 3]: 6.74% and 15.0% and 8.08%
- AUClast [2, 3]: 944.488 µg·h/mL and 811.185 µg·h/mL
- AUClast/D [2, 3]: 71600 kg·ng·h/mL/mg and 94400 kg·ng·h/mL/mg and 81100 kg·ng·h/mL/mg
- AUClnf [2, 3]: 1110.949 µg·h/mL and 882.526 µg·h/mL
- Cmax [2, 3]: 32700 ng/mL and 33300 ng/mL
- MRTlnf_obs [2, 3]: 24.3 h and 36.3 h and 27.2 h
- T1/2 [2, 3]: 27.5 h and 20.3 h
- AUC_% Extrap_obs Mean ([2]; SC Dose 10 mg/kg, plasma, mean): 9.9%
- AUClast/D Mean ([2]; SC Dose 10 mg/kg, plasma, mean): 82400 kg·ng·h/mL/mg
- MRTlnf_obs Mean ([2]; SC Dose 10 mg/kg, plasma, mean): 29.3 h
- Tmax ([2]; Sprague-Dawley, rat, SC Dose 10 mg/kg, plasma, individual rats, read-out: Tmax): 2 h
- concentration at 0.25 h ([2]; male, Sprague-Dawley, rat, plasma, sc, 10 mg/kg, 10 mg/kg SC, 0.25 h, individual rats, read-out: Concentration (ng/ml) Rat 1-3): 23100 ng/mL
- concentration at 0.25 h ([2]; male, Sprague-Dawley, rat, plasma, sc, 10 mg/kg, 10 mg/kg SC, 0.25 h, mean, read-out: Concentration Mean): 22000 ng/mL
- concentration at 0.5 h ([2]; male, Sprague-Dawley, rat, plasma, sc, 10 mg/kg, 10 mg/kg SC, 0.5 h, individual rats, read-out: Concentration (ng/ml) Rat 1-3): 25700 ng/mL
- concentration at 0.5 h ([2]; male, Sprague-Dawley, rat, plasma, sc, 10 mg/kg, 10 mg/kg SC, 0.5 h, mean, read-out: Concentration Mean): 27700 ng/mL
- concentration at 1 h ([2]; male, Sprague-Dawley, rat, plasma, sc, 10 mg/kg, 10 mg/kg SC, 1 h, individual rats, read-out: Concentration (ng/ml) Rat 1-3): 30700 ng/mL
- concentration at 1 h ([2]; male, Sprague-Dawley, rat, plasma, sc, 10 mg/kg, 10 mg/kg SC, 1 h, mean, read-out: Concentration Mean): 31800 ng/mL
- concentration at 2 h ([2]; male, Sprague-Dawley, rat, plasma, sc, 10 mg/kg, 10 mg/kg SC, 2 h, individual rats, read-out: Concentration (ng/ml) Rat 1-3): 31300 ng/mL
- concentration at 2 h ([2]; male, Sprague-Dawley, rat, plasma, sc, 10 mg/kg, 10 mg/kg SC, 2 h, mean, read-out: Concentration Mean): 32400 ng/mL
- concentration at 4 h ([2]; male, Sprague-Dawley, rat, plasma, sc, 10 mg/kg, 10 mg/kg SC, 4 h, individual rats, read-out: Concentration (ng/ml) Rat 1-3): 25700 ng/mL
- concentration at 4 h ([2]; male, Sprague-Dawley, rat, plasma, sc, 10 mg/kg, 10 mg/kg SC, 4 h, mean, read-out: Concentration Mean): 26900 ng/mL
- concentration at 8 h ([2]; male, Sprague-Dawley, rat, plasma, sc, 10 mg/kg, 10 mg/kg SC, 8 h, individual rats, read-out: Concentration (ng/ml) Rat 1-3): 22700 ng/mL
- concentration at 8 h ([2]; male, Sprague-Dawley, rat, plasma, sc, 10 mg/kg, 10 mg/kg SC, 8 h, mean, read-out: Concentration Mean): 23600 ng/mL
- concentration at 24 h ([2]; male, Sprague-Dawley, rat, plasma, sc, 10 mg/kg, 10 mg/kg SC, 24 h, individual rats, read-out: Concentration (ng/ml) Rat 1-3): 10300 ng/mL
- concentration at 24 h ([2]; male, Sprague-Dawley, rat, plasma, sc, 10 mg/kg, 10 mg/kg SC, 24 h, mean, read-out: Concentration Mean): 12300 ng/mL
- concentration at 48 h ([2]; male, Sprague-Dawley, rat, plasma, sc, 10 mg/kg, 10 mg/kg SC, 48 h, individual rats, read-out: Concentration (ng/ml) Rat 1-3): 4080 ng/mL
- concentration at 48 h ([2]; male, Sprague-Dawley, rat, plasma, sc, 10 mg/kg, 10 mg/kg SC, 48 h, mean, read-out: Concentration Mean): 5770 ng/mL
- concentration at 72 h ([2]; male, Sprague-Dawley, rat, plasma, sc, 10 mg/kg, 10 mg/kg SC, 72 h, mean): 2830 ng/mL
